The text below walks through data of patent US20230066011A1, “PYRROLOPYRIMIDINE DERIVATIVE, AND PHARMACEUTICAL COMPOSITION FOR PREVENTING OR TREATING PROTEIN KINASE-RELATED DISEASE COMPRISING SAME AS ACTIVE INGREDIENT” (VORONOI CO., LTD., priority 2019, published 2023).

In one experiment the target is T1, human GST-DYRK1A (Homo sapiens, UniProt Q13627).
T1 construct: purified human GST-DYRK1A (full length, Thermo Scientifics) enzyme; purchased Thermo Scientifics
The experiment in a line: GST-DYRK1A enzyme inhibition, ADP-Glo kinase assay. The experiment is classed as biochemical. The settings on record: ATP 10 μM, GST-DYRK1A full length, read-out: DYRK1 IC50. Summed up:
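Full-length human GST-DYRK1A (10 ng) with 10 μM ATP and specific substrate in 40 mM Tris-HCl pH 7.4, 20 mM MgCl2, 0.5 mg/mL BSA, 50 μM DTT, 1 h at 25 °C. ADP formation read by ADP-Glo luminescence relative to solvent control; IC50 from three data sets.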

The next experiment addresses T2, human GST-CLK1 (Homo sapiens, UniProt P49759).
T2 construct: purified human GST-CLK1 (129-end, SignalChem) enzyme; purchased SignalChem
The experiment in a line: GST-CLK1 enzyme inhibition, ADP-Glo kinase assay. Format: biochemical. The settings on record: ATP 10 μM, GST-CLK1 129-end. Summed up:
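Human GST-CLK1 (129-end, 3 ng) reacted with substrate and 10 μM ATP for 1 h at 25° C in 40 mM Tris-HCl pH 7.4, 20 mM MgCl2, 0.5 mg/mL BSA, 50 μM DTT. ADP-Glo luminescence was normalised to solvent control; IC50 (nM) from 3 data sets.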

A further experiment has as its system IL-6. The experiment in a line: Inhibition of LPS-induced IL-6 secretion of THP-1 monocytes (ELISA). The experiment is classed as cell-based, human. The settings on record: Homo sapiens, THP-1; compound 0.5 μM, LPS 500 ng/mL, 24 hours; read-out: THP1/IL6 (% inhib). As for the experimental part:
To evaluate an inhibitory effect on cytokine secretion of monocytes, THP-1 cells (ATCC, #TIB-202) as a human-derived monocyte line were cultured in an RPMI-1640 (Hyclone, SH30027.01) medium supplemented with 10% fetal bovine serum (Hyclone, SH30084.03), 1% penicillin streptomycin (Welgene, LS202-02), and 50 μM 2-mercaptoethanol (Gibco, #21985023). In the test, the cells were seeded in a 48-well plate (SPL, #30048) at a density of 1.5 to 2×10^5 cells/250 μL per well, and cultured at 37° C. for 16 hours in a 5% CO2 incubator. Thereafter, the compound was diluted with DMSO so that the final concentration of the compound was 0.5 μM. Then, the cells were treated with the diluted compound before an hour of treatment with lipopolysaccharides (LPS) (Sigma, #L6529). After the treatment with the compound, the cells were treated with LPS so that the final concentration was 500 ng/mL. Then, a cell culture broth was collected after 24 hours of culture, and levels of cytokine IL-6 (R&D Systems, #D6050) and TNF-α (R&D Systems, #DTA00D) comprised in the culture broth were measured using respective ELISA kits. After an experiment was performed according to the manufacturer's guidelines, cell analysis was performed by measuring the optical density at 450 nm using a microplate reader.

The next experiment addresses LRRK2 (Homo sapiens, UniProt Q5S007). The experiment in a line: LRRK2 enzyme inhibition, ADP-Glo kinase assay. The experiment is classed as biochemical. More on the design: purchased Invitrogen PR8604B. As to conditions: ATP 10 μM. The method, boiled down:
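Purified human LRRK2 (25 ng) with 10 μM ATP and 0.2 μg substrate in 40 mM Tris-HCl pH 7.4, 20 mM MgCl2, 0.5 mg/mL BSA, 50 μM DTT, 2 h at 25° C. ADP-Glo luminescence; 12-point compound series from 50 μM final; IC50 relative to solvent control.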

In another experiment the target is LRRK2 (G2019S) (Homo sapiens, UniProt Q5S007, G2019S). The experiment in a line: LRRK2 G2019S enzyme inhibition, ADP-Glo kinase assay. Format: biochemical. The settings on record: ATP 25 μM. More on the design: purchased SignalChem L10-12GG. Summed up: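 Purified human LRRK2 G2019S (16 ng) with 25 μM ATP and 0.2 μg substrate, 2 h at 25° C. in Tris-HCl pH 7.4, MgCl2, BSA, DTT buffer; compounds at 12 final concentrations, 50 μM down to 0.000001024 μM. ADP-Glo luminescence versus solvent control gave IC50.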

A further experiment has as its system MDA-MB-231 cell line. The experiment in a line: Inhibition of proliferation of MDA-MB-231 cancer cells (Cell Titer-Glo). Format: cell-based. The settings on record: Homo sapiens, 72 hours. Summed up: (§1)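 Step one, seed 2,000 cells per well in DMEM or RPMI. Step two, add compound at 11 final concentrations (10 to 0.000169 μM, 3-fold series) and culture for 72 hours. Step three, add Cell Titer-Glo, wait 10 min at room temperature, read luminescence and calculate GI50.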

In the next experiment the test system is MDA-MB-468 cell line. The experiment in a line: Inhibition of proliferation of MDA-MB-468 cancer cells (Cell Titer-Glo). The experiment is classed as cell-based. The settings on record: Homo sapiens, MDA-MB-468, 72 hours. Summed up: as §1
The next experiment concerns the target T3, TTK (Homo sapiens, UniProt P33981).
T3 sequence (P33981 1-857): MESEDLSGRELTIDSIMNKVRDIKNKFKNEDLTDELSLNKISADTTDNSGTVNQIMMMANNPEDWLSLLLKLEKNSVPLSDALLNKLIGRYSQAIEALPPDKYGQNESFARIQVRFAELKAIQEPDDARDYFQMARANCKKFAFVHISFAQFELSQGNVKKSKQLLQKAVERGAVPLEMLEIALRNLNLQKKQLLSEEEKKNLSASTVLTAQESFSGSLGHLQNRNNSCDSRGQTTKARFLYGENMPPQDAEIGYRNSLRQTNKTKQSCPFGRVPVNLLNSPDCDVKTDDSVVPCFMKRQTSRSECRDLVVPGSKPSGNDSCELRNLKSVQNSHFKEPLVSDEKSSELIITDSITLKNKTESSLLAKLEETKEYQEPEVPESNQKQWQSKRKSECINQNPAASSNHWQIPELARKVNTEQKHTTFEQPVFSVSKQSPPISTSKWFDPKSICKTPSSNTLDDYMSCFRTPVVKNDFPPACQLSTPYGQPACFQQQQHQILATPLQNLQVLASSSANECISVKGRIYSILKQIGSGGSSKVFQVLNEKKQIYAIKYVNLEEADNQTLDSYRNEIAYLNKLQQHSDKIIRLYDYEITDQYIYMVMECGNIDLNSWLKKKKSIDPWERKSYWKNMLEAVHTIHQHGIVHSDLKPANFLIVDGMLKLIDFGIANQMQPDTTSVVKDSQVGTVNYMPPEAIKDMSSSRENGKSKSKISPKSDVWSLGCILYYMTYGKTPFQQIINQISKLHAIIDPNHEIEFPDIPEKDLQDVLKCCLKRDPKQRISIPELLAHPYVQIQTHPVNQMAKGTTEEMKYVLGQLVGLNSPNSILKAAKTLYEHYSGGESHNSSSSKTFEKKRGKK
The experiment in a line: TTK enzyme inhibition, ADP-Glo kinase assay. The experiment is classed as biochemical. The settings on record: ATP 5 μM. More on the design: purchased SignalChem T20-10G. As for the experimental part: To evaluate an inhibitory activity of the compound according to the present invention against LRRK2, LRRK2 (G2019S), DYRK1, CLK1, and TTK kinases, experiments were performed as follows.
Each of the Example compounds was reacted with a purified human TTK (SignalChem #T20-10G) enzyme to evaluate an ability to inhibit an enzyme using a method as described below. A composition of 40 mM Tris-HCl (pH 7.4), 20 mM MgCl2, 0.1 mg/mL BSA (a 5× kinase buffer, SignalChem #K03-09), and 50 μM DTT (SignalChem #D86-09B) was used as a reaction buffer, and all reactions of test substances were performed in the reaction buffer. Each of the compounds was diluted […] from a 10 mM DMSO stock using a serial dilution method, and enzyme activities were measured at final compound concentrations of 1, 0.333333, 0.111111, 0.037037, 0.012346, 0.004115, 0.001372, 0.000457, 0.000152, 0.000051, and 0.000017 μM. In the test, purified ATP (5 μM, Promega #V6930) and an MBP enzyme substrate (0.2 μg, SignalChem M42-51N) were reacted with a human TTK (7.5 ng) enzyme at 25° C. for 4 hours, and the enzyme activities were then determined using an in vitro ADP-Glo™ kinase assay (Promega #V6930). An enzyme-activity reaction solution, an ADP-Glo reaction solution, and an enzyme-ability detection solution were reacted at a ratio of 2:2:1 to measure a degree of inhibition of the enzyme activity with luminescence. The degree of inhibition of the enzyme activity according to the treatment concentration of each of the compounds was calculated based on the fluorescence of the enzyme activity of the solvent control which was not treated with the compound. In this case, the concentration of each of the compounds inhibiting 50% of the enzyme activity was determined to be an IC50 (nM) value, and calculated using Prism (Version 8.2 GraphPad) software.

The next experiment relates to SHP-77. The experiment in a line: Inhibition of proliferation of SHP-77 cancer cells (Cell Titer-Glo). The settings on record: Homo sapiens, SHP77, 72 hours. The experiment is classed as cell-based. The method, boiled down:
as §1

T2 sequence (P49759 129-484 limits assumed): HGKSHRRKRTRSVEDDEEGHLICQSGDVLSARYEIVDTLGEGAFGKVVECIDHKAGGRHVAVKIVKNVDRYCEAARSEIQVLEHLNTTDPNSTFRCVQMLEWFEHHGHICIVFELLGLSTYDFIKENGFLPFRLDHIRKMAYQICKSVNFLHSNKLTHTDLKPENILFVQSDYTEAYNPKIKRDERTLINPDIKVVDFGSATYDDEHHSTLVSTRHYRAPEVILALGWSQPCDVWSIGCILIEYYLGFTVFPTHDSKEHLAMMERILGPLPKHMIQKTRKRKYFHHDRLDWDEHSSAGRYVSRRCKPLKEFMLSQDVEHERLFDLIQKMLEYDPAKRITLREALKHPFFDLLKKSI
Sequence of LRRK2 (Q5S007 970-2527 limits assumed): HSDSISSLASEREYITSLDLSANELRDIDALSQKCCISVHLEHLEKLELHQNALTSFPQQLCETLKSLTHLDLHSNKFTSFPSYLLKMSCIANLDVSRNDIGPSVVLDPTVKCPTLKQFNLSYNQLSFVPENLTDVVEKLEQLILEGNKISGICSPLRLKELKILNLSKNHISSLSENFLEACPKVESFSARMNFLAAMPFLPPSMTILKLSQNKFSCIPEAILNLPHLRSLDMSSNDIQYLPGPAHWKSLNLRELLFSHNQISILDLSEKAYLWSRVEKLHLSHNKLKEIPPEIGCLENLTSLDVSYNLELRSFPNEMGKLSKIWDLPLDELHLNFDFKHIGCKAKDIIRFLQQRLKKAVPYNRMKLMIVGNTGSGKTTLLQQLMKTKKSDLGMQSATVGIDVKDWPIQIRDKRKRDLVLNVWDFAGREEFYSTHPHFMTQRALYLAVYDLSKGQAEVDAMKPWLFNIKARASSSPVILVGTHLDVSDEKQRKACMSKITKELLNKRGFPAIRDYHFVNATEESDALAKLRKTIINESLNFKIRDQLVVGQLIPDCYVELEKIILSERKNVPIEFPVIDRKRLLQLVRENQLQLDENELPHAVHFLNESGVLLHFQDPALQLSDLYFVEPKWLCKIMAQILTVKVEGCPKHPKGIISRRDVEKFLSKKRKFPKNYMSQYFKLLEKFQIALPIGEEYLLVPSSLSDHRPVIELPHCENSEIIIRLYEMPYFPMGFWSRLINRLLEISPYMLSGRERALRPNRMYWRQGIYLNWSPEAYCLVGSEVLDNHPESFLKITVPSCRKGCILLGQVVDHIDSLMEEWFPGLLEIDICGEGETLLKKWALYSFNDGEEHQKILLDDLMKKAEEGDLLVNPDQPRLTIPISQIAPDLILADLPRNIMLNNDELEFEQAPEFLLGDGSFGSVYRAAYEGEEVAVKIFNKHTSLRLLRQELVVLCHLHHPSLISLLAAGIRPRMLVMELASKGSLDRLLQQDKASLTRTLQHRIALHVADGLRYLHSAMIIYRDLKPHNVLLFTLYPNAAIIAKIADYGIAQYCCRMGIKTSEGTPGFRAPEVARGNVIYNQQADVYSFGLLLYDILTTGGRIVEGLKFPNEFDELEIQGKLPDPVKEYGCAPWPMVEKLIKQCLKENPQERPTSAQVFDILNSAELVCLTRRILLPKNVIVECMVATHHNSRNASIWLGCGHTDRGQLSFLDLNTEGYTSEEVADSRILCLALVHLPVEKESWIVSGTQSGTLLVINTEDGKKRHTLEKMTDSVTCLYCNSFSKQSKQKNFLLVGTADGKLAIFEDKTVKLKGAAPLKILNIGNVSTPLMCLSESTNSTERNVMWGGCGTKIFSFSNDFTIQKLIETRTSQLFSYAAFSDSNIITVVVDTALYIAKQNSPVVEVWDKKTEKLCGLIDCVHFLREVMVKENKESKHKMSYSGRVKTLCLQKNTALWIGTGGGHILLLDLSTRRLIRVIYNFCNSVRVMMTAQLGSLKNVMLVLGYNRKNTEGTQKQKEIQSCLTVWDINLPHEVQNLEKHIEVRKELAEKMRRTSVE
Sequence of LRRK2 (G2019S) (Q5S007 970-2527 G2019S limits assumed): as the sequence (Q5S007 970-2527 limits assumed) above, with G1050S counted along it

For `COCCNc1nc(Nc2ccc(C(=O)N3C[C@@H]4C[C@H]3CO4)c3c2OCCO3)nc2[nH]cc(C(F)(F)F)c12` [Example 410, ((LS,4S)-2-oxa-5-azabicyclo[2.2.1]heptan-5-yl)(8-((4-((2-methoxy-ethyl)amino)-5-(trifluoromethyl)-7H-pyrrolo[2,3-d]pyrimidin-2-yl)amino)-2,3-dihydrobenzo[b] [1,4]dioxin-5-yl)methanone], the IC50 on human GST-DYRK1A, on human GST-CLK1 and against LRRK2 was less than 100 nM in each case. Also, the inhibition at 0.5 µM with IL-6 came to 17.8%.

Regarding `CCNc1nc(Nc2ccc(C(=O)N3CCOCC3)c3c2OCO3)nc2[nH]cc(C(F)(F)F)c12` [Example 212, (7-((4-(ethylamino)-5-(trifluoromethyl)-7H-pyrrolo[2,3-d]pyrimidin-2-yl)amino)benzo[d][1,3]dioxol-4-yl)(morpholino)methanone], the IC50 at human GST-DYRK1A, against human GST-CLK1, on LRRK2 and at LRRK2 (G2019S) was less than 100 nM in each case. Further, the inhibition at 0.5 µM in the experiment on IL-6 was 12.6%.

In the case of `N#Cc1c[nH]c2nc(Nc3ccc(C(=O)N4CCN(C5COC5)CC4)c4c3OCCO4)nc(NC3CCCC3)c12` [Example 147, 4-(cyclopentylamino)-2-((8-(4-(oxetan-3-yl)piperazine-1-carbonyl)-2,3-dihydrobenzo[b][1,4]dioxin-5-yl)amino)-7H-pyrrolo[2,3-d]pyrimidin-5-carbonitrile], the IC50 was 301 to 1000 nM at human GST-DYRK1A, less than 100 nM against human GST-CLK1 and less than 100 nM at TTK. The 50% growth inhibitory concentration (GI50) in the experiment on MDA-MB-231 cell line was 101 to 300 nM; in the experiment on MDA-MB-468 cell line, 51 to 100 nM.

As to `CC[C@@H](C)Nc1nc(Nc2ccc(S(=O)(=O)N3CCOCC3)cc2OC)nc2[nH]cc(C#N)c12` [Example 67, (R)-4-(sec-butylamino)-2-((2-methoxy-4-(morpholinosulfonyl)phenyl)amino)-7H-pyrrolo[2,3-d]pyrimidine-5-carbonitrile], the figures for the concentration for half-maximal inhibition (IC50) on human GST-DYRK1A, at human GST-CLK1 and on TTK were 301 to 1000 nM, 301 to 1000 nM and less than 100 nM, respectively. The concentration for 50% growth inhibition (GI50) in the experiment with MDA-MB-231 cell line and with SHP-77 was less than 50 nM each time.

With `N#Cc1c[nH]c2nc(Nc3ccc(C(=O)N4CCOCC4)c4c3OCO4)nc(NC3CCCCC3)c12` [Example 150, 4-(cyclohexylamino)-2-((7-(morpholine-4-carbonyl)benzo[d][1,3]dioxol-4-yl)amino)-7H-pyrrolo[2,3-d]pyrimidine-5-carbonitrile], the results for the half-maximal inhibitory concentration (IC50) on human GST-DYRK1A, against human GST-CLK1 and against TTK were 301 to 1000 nM, 301 to 1000 nM and less than 100 nM, respectively. In addition, the 50% growth inhibitory concentration (GI50) in the experiment with MDA-MB-231 cell line and in the experiment with MDA-MB-468 cell line was 51 to 100 nM in each case.

Take `CCN1CCP(=O)(c2ccc(Nc3nc(NC4CCCCC4)c4c(C#N)c[nH]c4n3)c(OC)c2)CC1` [Example 151, 4-(cyclohexylamino)-2-((4-(1-ethyl-4-oxido-1,4-azaphosphinan-4-yl)-2-methoxyphenyl)amino)-7H-pyrrolo[2,3-d]pyrimidine-5-carbonitrile]: the IC50 was 301 to 1000 nM at human GST-DYRK1A, 101 to 300 nM against human GST-CLK1 and less than 100 nM at TTK. In addition, the GI50 in the experiment on MDA-MB-231 cell line lay in the range of 101 to 300 nM; in the experiment with MDA-MB-468 cell line, 51 to 100 nM.

As for `CN1CCC(NC(=O)c2ccc(Nc3nc(NC4CCCCC4)c4c(C#N)c[nH]c4n3)c3c2OCCO3)CC1` [Example 143, 8-((5-cyano-4-(cyclohexylamino)-7H-pyrrolo[2,3-d]pyrimidin-2-yl)amino)-N-(1-methylpiperidin-4-yl)-2,3-dihydrobenzo[b][1,4]dioxin-5-carboxamide], the IC50 was 301 to 1000 nM on human GST-DYRK1A, less than 100 nM on human GST-CLK1 and less than 100 nM on TTK. Moreover, the GI50 with MDA-MB-231 cell line and in the experiment on MDA-MB-468 cell line was 51 to 100 nM each time.
